pIC50: −log10 of the molar value.
Assays:
S. scrofa CI = target: T1, S. scrofa CI (Sus scrofa, UniProt A0A4X1SZP7); assay: NADH oxidation at […] nm; type: biochemical; conditions: 200 μM DQ, 300 μM NADH, pH 7.4; thermal deactivation assay
T1 construct: gene NDUFV1; native purified mitochondrial complex I; with NADH dehydrogenase [ubiquinone] flavoprotein 2, mitochondrial; NADH-ubiquinone oxidoreductase 75 kDa subunit, mitochondrial

[1] = target: T2, Eg-CI (ubiquinone / rotenone site); assay: NADH-DQ oxidoreductase, NADH oxidation at […] nm; type: biochemical, Euglena gracilis; conditions: 10 nM Eg-CI, 200 μM decylubiquinone, 250 μM NADH, pH 7.4, 0.1% digitonin, room temperature
T2 construct: gene ND1; native mitochondrial complex I, LMNG-solubilised, 59 subunits (16 core), ion exchange and SEC; cells catalogue GY-D32; with NADH dehydrogenase [ubiquinone] flavoprotein 1, mitochondrial; NADH-ubiquinone oxidoreductase 75 kDa subunit, N-terminal part; NADH-ubiquinone oxidoreductase 75 kDa subunit, C-terminal part

T1 sequence (A0A4X1SZP7 21-464): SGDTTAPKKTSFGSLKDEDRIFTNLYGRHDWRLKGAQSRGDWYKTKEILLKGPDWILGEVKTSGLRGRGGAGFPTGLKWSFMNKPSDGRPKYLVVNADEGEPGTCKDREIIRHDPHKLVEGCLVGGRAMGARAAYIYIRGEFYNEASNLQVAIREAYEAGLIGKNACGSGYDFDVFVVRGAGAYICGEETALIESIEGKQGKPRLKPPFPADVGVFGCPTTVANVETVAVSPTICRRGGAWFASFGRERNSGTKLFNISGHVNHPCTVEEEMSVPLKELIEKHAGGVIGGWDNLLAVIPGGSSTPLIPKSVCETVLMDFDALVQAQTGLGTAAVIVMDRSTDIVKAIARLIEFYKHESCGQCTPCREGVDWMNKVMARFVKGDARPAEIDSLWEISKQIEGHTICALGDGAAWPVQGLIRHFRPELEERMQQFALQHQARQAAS

Row | Structure (SMILES) | NADH oxidation at 340 nm (S. scrofa CI) | pIC50 [1]
1 | NC(=O)C1=CN([C@@H]2O[C@H](COP(=O)(O)OP(=O)(O)OC[C@H]3O[C@@H](n4cnc5c(N)ncnc54)[C@H](O)[C@@H]3O)[C@@H](O)[C@H]2O)C=CC1 [NADH] | Thermal deactivation assays of S. scrofa CI (a) | 
2 | C=C(C)[C@H]1Cc2c(ccc3c2O[C@@H]2COc4cc(OC)c(OC)cc4[C@@H]2C3=O)O1 [rotenone] |  | ~4.96

— publication PMC10884005, “Euglena’s atypical respiratory chain adapts to the discoidal cristae and flexible metabolism” (Nature Communications, 2024)
